Read-outs that look alike come from different tables or passages of the source.
Test system: zebrafish embryos and larvae
Conditions: for Maximum-tolerated concentration (MTC): highest concentration with no phenotypic abnormalities, followed to 9 dpf; for MTC / tolerated concentration: over all or most developmental stages analyzed, 24-hour exposure
Method: Zebrafish embryos of the AB wild-type strain (originally obtained from the Zebrafish International Resource Center, Eugene, Oregon, USA) were raised at 28°C. Zebrafish husbandry, embryo collection, and embryo and larva maintenance were performed as described, [21]. Toxicity assays were standardly performed in 24-well microtiter plates (wrapped with Parafilm to limit solvent evaporation) using 10 embryos per well in 1 ml of 0.3× Danieau's medium (17 mM NaCl, 2 mM KCl, 0.12 mM MgSO4, 1.8 mM Ca(NO3)2 and 1.5 mM HEPES, pH 7.6). Each experiment was repeated 3 times for a total of 30 embryos or larvae analyzed per solvent per developmental staged tested. Data were only recorded for experiments in which the percentage of normal embryos or larvae in the control group was at least 90%. […] In determining the maximum tolerated concentration (MTC) for each solvent and carrier, all post-exposure embryos and larvae were allowed to develop in larva medium to 9 dpf, so as to detect any deleterious effects appearing after this 24-hour window. Solvents and carriers were obtained from the following suppliers: acetone (Chemlab, Zedelgem, Belgium), acetonitrile (Acros Organics, Geel, Belgium), albumin (BSA, Sigma-Aldrich, Bornem, Belgium), butanone (Riedel-de Haën, Seelze, Germany), cyclodextrin (2- hydroxypropyl-beta-cyclodextrin, Sigma-Aldrich), dimethyl formamide (Acros), DMSO (Agros), ethanol (Fisher Scientific, Doornik, Belgium), glycerol (Acros), isopropanol (Chemlab), methanol (Chemlab), polyethylene glycol-400 (Fluka, Bornem, Belgium), propylene glycol (Certa, Eigenbrakel, Belgium), solketal (Merck, Overijse, Belgium). Statistical analyses were done using chi-square in Microsoft Excel.
Twelve solvents and 2 carriers – chosen based solely on their potential utility for the solubilization and delivery of a structurally diverse range of small molecules – were analyzed for their effects on zebrafish embryos and larvae. The solvents included acetone, acetonitrile, butanone, dimethyl formamide, DMSO, ethanol, glycerol, isopropanol, methanol, polyethylene glycol (PEG-400), propylene glycol, and solketal, and the carriers included albumin (BSA) and cyclodextrin (2-hydroxypropyl-beta-cyclodextrin, or HPBCD). […] For this initial study, the effects of a 24-hour exposure to each solvent and carrier was analyzed using embryos and larvae at the following developmental stages: 2–4 cell, 4 hours-post fertilization (hpf), and 1, 2, 3, 4, and 7 days post-fertilization (dpf).

[1] = exposure for 24 hours beginning at 1 dpf
[2] = exposure for 24 hours beginning at 2 dpf
[3] = exposure for 24 hours beginning at 2–4 cell stage
[4] = exposure for 24 hours beginning at 3 dpf
[5] = exposure for 24 hours beginning at 4 dpf
[6] = exposure for 24 hours beginning at 4 hpf
[7] = exposure for 24 hours beginning at 5 dpf
[8] = exposure for 24 hours beginning at 7 dpf
[9] = exposure from 1 dpf, at the concentration in parentheses
[10] = exposure from 2 dpf, at the concentration in parentheses
[11] = exposure from 3 dpf, at the concentration in parentheses
[12] = 24 hours exposure from 2–4 cell stage
[13] = exposure from 7 dpf, at the concentration in parentheses

CCC(C)=O [Butanone (MEK), 2-butanone]
Lowest concentration at which an average penetrance of at least 50% was observed for the phenotypic effects (24 hours exposure from 1 dpf): 2%
Lowest concentration at which an average penetrance of at least 50% was observed for the phenotypic effects (24 hours exposure from 2 dpf): 2.5%
Lowest concentration at which an average penetrance of at least 50% was observed for the phenotypic effects (24 hours exposure from 3 dpf): 2%
Maximum-tolerated concentration (MTC) [1]: 1%
Maximum-tolerated concentration (MTC) [2]: 1.5%
Maximum-tolerated concentration (MTC) [3]: 0.5%
Maximum-tolerated concentration (MTC) (exposure for 24 hours beginning at 2–4 cell stage, listed as butanone): ≤ 0.5%
Maximum-tolerated concentration (MTC) [4]: 1.5%
Maximum-tolerated concentration (MTC) [5]: 1.5%
Maximum-tolerated concentration (MTC) [6]: 1%
Maximum-tolerated concentration (MTC) [7]: <0.5%
Maximum-tolerated concentration (MTC) (exposure for 24 hours beginning at 5 dpf, listed as butanone): ≤ 0.5%
Maximum-tolerated concentration (MTC) [8]: 0.5%
Maximum-tolerated concentration (MTC) (exposure for 24 hours beginning at 7 dpf, listed as butanone): ≤ 0.5%
Phenotypic effects above MTC after 24 hours (average penetrance at least 50%) [9]: IC MC PE
Phenotypic effects above MTC after 24 hours (average penetrance at least 50%) [10]: DD HJ
Phenotypic effects above MTC after 24 hours (average penetrance at least 50%) [11]: HJ SB

CC(O)COC[C@H]1O[C@@H]2O[C@H]3[C@H](O)[C@@H](O)[C@@H](O[C@H]4[C@H](O)[C@@H](O)[C@@H](O[C@H]5[C@H](O)[C@@H](O)[C@@H](O[C@H]6[C@H](O)[C@@H](O)[C@@H](O[C@H]7[C@H](O)[C@@H](O)[C@@H](O[C@H]8[C@H](O)[C@@H](O)[C@@H](O[C@H]1[C@H](O)[C@H]2O)O[C@@H]8COCC(C)O)O[C@@H]7COCC(C)O)O[C@@H]6COCC(C)O)O[C@@H]5COCC(C)O)O[C@@H]4COCC(C)O)O[C@@H]3COCC(C)O (stereo partly drawn) [Cyclodextrin (HPBCD), 2-hydroxypropyl-beta-cyclodextrin]
Maximum-tolerated concentration (MTC) [1]: 1%
Maximum-tolerated concentration (MTC) [2]: 1.5%
Maximum-tolerated concentration (MTC) [3]: 1%
Maximum-tolerated concentration (MTC) [4]: 1.5%
Maximum-tolerated concentration (MTC) [5]: 1%
Maximum-tolerated concentration (MTC) [6]: 0.5%
Maximum-tolerated concentration (MTC) [7]: 1.5%
Maximum-tolerated concentration (MTC) [8]: 1%
MTC / tolerated concentration: 1%

CN(C)C=O [Dimethyl formamide (DMF), Dimethyl formamide]
Lowest concentration at which an average penetrance of at least 50% was observed for the phenotypic effects (24 hours exposure from 1 dpf): 0.5%
Lowest concentration at which an average penetrance of at least 50% was observed for the phenotypic effects (24 hours exposure from 2 dpf): 1%
Lowest concentration at which an average penetrance of at least 50% was observed for the phenotypic effects [12]: 1%
Lowest concentration at which an average penetrance of at least 50% was observed for the phenotypic effects (24 hours exposure from 3 dpf): 1%
Lowest concentration at which an average penetrance of at least 50% was observed for the phenotypic effects (24 hours exposure from 4 dpf): 1%
Lowest concentration at which an average penetrance of at least 50% was observed for the phenotypic effects (24 hours exposure from 4 hpf): 1%
Lowest concentration at which an average penetrance of at least 50% was observed for the phenotypic effects (24 hours exposure from 5 dpf): 1.5%
Lowest concentration at which an average penetrance of at least 50% was observed for the phenotypic effects (24 hours exposure from 7 dpf): 0.5%
Maximum-tolerated concentration (MTC) [1]: <0.5%
Maximum-tolerated concentration (MTC) [2]: 0.5%
Maximum-tolerated concentration (MTC) [3]: 0.5%
Maximum-tolerated concentration (MTC) [4]: 0.5%
Maximum-tolerated concentration (MTC) [5]: 0.5%
Maximum-tolerated concentration (MTC) [6]: <0.5%
Maximum-tolerated concentration (MTC) [7]: 0.5%
Maximum-tolerated concentration (MTC) [8]: <0.5%
Phenotypic effects above MTC after 24 hours (average penetrance at least 50%) [9]: AP BH IC IM NB PE
Phenotypic effects above MTC after 24 hours (average penetrance at least 50%) [10]: AP HJ PE
Phenotypic effects above MTC after 24 hours (average penetrance at least 50%) [11]: HJ IC PE
Phenotypic effects above MTC after 24 hours (average penetrance at least 50%) (exposure from 4 dpf, at the concentration in parentheses): AP LP
Phenotypic effects above MTC after 24 hours (average penetrance at least 50%) (exposure from 4 hpf, at the concentration in parentheses): AP BC BS CF PE
Phenotypic effects above MTC after 24 hours (average penetrance at least 50%) (exposure from 5 dpf, at the concentration in parentheses): IM LP PE SB
Phenotypic effects above MTC after 24 hours (average penetrance at least 50%) [13]: HO LP
MTC / tolerated concentration: ≤ 0.5%

CCO [Ethanol, ethanol]
Lowest concentration at which an average penetrance of at least 50% was observed for the phenotypic effects (24 hours exposure from 1 dpf): 2%
Lowest concentration at which an average penetrance of at least 50% was observed for the phenotypic effects (24 hours exposure from 2 dpf): 2%
Lowest concentration at which an average penetrance of at least 50% was observed for the phenotypic effects [12]: 1.5%
Lowest concentration at which an average penetrance of at least 50% was observed for the phenotypic effects (24 hours exposure from 3 dpf): 2%
Lowest concentration at which an average penetrance of at least 50% was observed for the phenotypic effects (24 hours exposure from 4 dpf): 2%
Lowest concentration at which an average penetrance of at least 50% was observed for the phenotypic effects (24 hours exposure from 4 hpf): 1.5%
Lowest concentration at which an average penetrance of at least 50% was observed for the phenotypic effects (24 hours exposure from 5 dpf): 2.5%
Lowest concentration at which an average penetrance of at least 50% was observed for the phenotypic effects (24 hours exposure from 7 dpf): 1.5%
Maximum-tolerated concentration (MTC) [1]: 1%
Maximum-tolerated concentration (MTC) [2]: 1.5%
Maximum-tolerated concentration (MTC) [3]: 1%
Maximum-tolerated concentration (MTC) [4]: 1%
Maximum-tolerated concentration (MTC) [5]: 1.5%
Maximum-tolerated concentration (MTC) [6]: 0.5%
Maximum-tolerated concentration (MTC) [7]: 0.5%
Maximum-tolerated concentration (MTC) [8]: 1%

OCC(O)CO [Glycerol]
Lowest concentration at which an average penetrance of at least 50% was observed for the phenotypic effects (24 hours exposure from 1 dpf): 2%
Lowest concentration at which an average penetrance of at least 50% was observed for the phenotypic effects (24 hours exposure from 2 dpf): 2%
Lowest concentration at which an average penetrance of at least 50% was observed for the phenotypic effects [12]: 2.5%
Lowest concentration at which an average penetrance of at least 50% was observed for the phenotypic effects (24 hours exposure from 3 dpf): 2%
Lowest concentration at which an average penetrance of at least 50% was observed for the phenotypic effects (24 hours exposure from 4 hpf): 2%
Maximum-tolerated concentration (MTC) [1]: 1.5%
Maximum-tolerated concentration (MTC) [2]: 1.5%
Maximum-tolerated concentration (MTC) [3]: 1.5%
Maximum-tolerated concentration (MTC) [4]: 1.5%
Maximum-tolerated concentration (MTC) [5]: 2%
Maximum-tolerated concentration (MTC) [6]: 1.5%
Maximum-tolerated concentration (MTC) [7]: >2.5%
Maximum-tolerated concentration (MTC) (exposure for 24 hours beginning at 5 dpf, listed as glycerol): ≥ 2.5%
Maximum-tolerated concentration (MTC) [8]: >2.5%
Maximum-tolerated concentration (MTC) (exposure for 24 hours beginning at 7 dpf, listed as glycerol): ≥ 2.5%

CC(C)O [Isopropanol, isopropanol]
Lowest concentration at which an average penetrance of at least 50% was observed for the phenotypic effects (24 hours exposure from 1 dpf): 1%
Lowest concentration at which an average penetrance of at least 50% was observed for the phenotypic effects (24 hours exposure from 2 dpf): 2%
Lowest concentration at which an average penetrance of at least 50% was observed for the phenotypic effects (24 hours exposure from 3 dpf): 2%
Lowest concentration at which an average penetrance of at least 50% was observed for the phenotypic effects (24 hours exposure from 4 hpf): 1.5%
Lowest concentration at which an average penetrance of at least 50% was observed for the phenotypic effects (24 hours exposure from 7 dpf): 1%
Maximum-tolerated concentration (MTC) [1]: 0.5%
Maximum-tolerated concentration (MTC) [2]: 1%
Maximum-tolerated concentration (MTC) [3]: 0.5%
Maximum-tolerated concentration (MTC) [4]: 1.5%
Maximum-tolerated concentration (MTC) [5]: 0.5%
Maximum-tolerated concentration (MTC) [6]: 1%
Maximum-tolerated concentration (MTC) [7]: <0.5%
Maximum-tolerated concentration (MTC) [8]: 0.5%
Phenotypic effects above MTC after 24 hours (average penetrance at least 50%) [9]: AP IC
Phenotypic effects above MTC after 24 hours (average penetrance at least 50%) [10]: IC LP
Phenotypic effects above MTC after 24 hours (average penetrance at least 50%) [11]: BC IC IM HJ PE
Phenotypic effects above MTC after 24 hours (average penetrance at least 50%) [13]: IC LP NB PE

CO [Methanol, methanol]
Lowest concentration at which an average penetrance of at least 50% was observed for the phenotypic effects [12]: 2%
Lowest concentration at which an average penetrance of at least 50% was observed for the phenotypic effects (24 hours exposure from 3 dpf): 2.5%
Lowest concentration at which an average penetrance of at least 50% was observed for the phenotypic effects (24 hours exposure from 4 hpf): 2%
Lowest concentration at which an average penetrance of at least 50% was observed for the phenotypic effects (24 hours exposure from 7 dpf): 2.5%
Maximum-tolerated concentration (MTC) [1]: 1.5%
Maximum-tolerated concentration (MTC) [2]: >2.5%
Maximum-tolerated concentration (MTC) [3]: 1.5%
Maximum-tolerated concentration (MTC) [4]: 2%
Maximum-tolerated concentration (MTC) [5]: 1%
Maximum-tolerated concentration (MTC) [6]: 1.5%
Maximum-tolerated concentration (MTC) [7]: >2.5%
Maximum-tolerated concentration (MTC) [8]: 2%
Phenotypic effects above MTC after 24 hours (average penetrance at least 50%) (in vivo): NB LP

Source: paper PMC3474771, “Evaluation of 14 Organic Solvents and Carriers for Screening Applications in Zebrafish Embryos and Larvae” (PLoS ONE, 2012)
